Source: paper PMC6554663, “Pharmaceutical Effects of Inhibiting the Soluble Epoxide Hydrolase in Canine Osteoarthritis” (Frontiers in Pharmacology, 2019)

Tested on: Canine chondrocytes (CnC)
Assay: IL1β induced chondrocyte cytotoxicity (Alamar Blue)
Format: cell-based
Conditions: meloxicam 1 μg/mL, EET 0.4 μg/mL total, 48 h
Protocol: Canine chondrocytes (CnC) were purchased from Cell Applications, Inc. […] Cells were kept at room temperature and monitored for detachment (∼2 min). Detached cells were added to 3× volume of full growth media and centrifuged to remove trypsin. Cells were reseeded at a concentration of 15,000 cells/cm^2 to reach 80% confluence in 3 days. Cells were expanded and frozen at the third passage in CGS containing 10% DMSO. For individual experiments, fresh cells were thawed and used at passage 5. Canine chondrocytes cells were plated in 96-well plates at a density of 15,000 cells/cm^2. Optimal cell number was predetermined by a cell seeding experiment outlined in [O'Brien et al. […] After 2 h, the IL1β treated media was aspirated and replaced with complete growth media supplemented with either vehicle (0.1% ethanol), regioisomers of EETs, or meloxicam for 48-h before assessing inflammatory cytokines and cytotoxicity. Cells were also pretreated with meloxicam or EET mixture 30 min prior to adding IL1β treatment for 2-h. After IL1β was removed, treatments were added to complete growth media for 48-h as described above. Treatment conditions are described in the Section “Results.” After the CnC cells were treated for 48-h under conditions described above, the media was removed and replaced with complete media containing 10% Alamar Blue (Life Technologies, catalog number DAL1025). The Alamar Blue assay relies on the metabolism of non-fluorescent resazurin to the highly fluorescent resorufin by healthy cells. Fluorescent intensity can be used to track cytotoxicity after xenobiotic treatments ([Larson et al., 1997]). After the addition of Alamar Blue, plates were protected from light and incubated at […] in a 5% CO2 atmosphere for 8 h. The conversion of resazurin was monitored by reading fluorescence at 570 excitations and 585 emission on a plate reader (Tecan […]) and cytotoxicity was calculated as the ratio of fluorescence from treated cells to non-treated controls.

With `Cc1cnc(NC(=O)C2=C(O)c3ccccc3S(=O)(=O)N2C)s1` [Meloxicam] the “IL1β induced cytotoxicity, treatment added after IL1β” value (10 ng/mL IL1β 2 h) was “did not result in significant reduction in cytotoxicity”, the “IL1β induced cytotoxicity, treatment added before IL1β” value (10 ng/mL IL1β 2 h) was “significantly reduced” and the “effect on healthy CnC cells (cytotoxicity, Alamar Blue)” value (absence of IL1β) was “no effect”.
